Test results reported in the supplement of paper PMC10331698.
± gives the standard deviation of the averaged measurements.

Key:
[1] = compound: O=C(O)C(F)(F)C(F)(F)C(F)(F)C(F)(F)C(F)(F)C(F)(F)C(F)(F)C(F)(F)C(F)(F)C(F)(F)C(F)(F)C(F)(F)F [Perfluorotridecanoic acid]; test: level (log10 ratio to DMSO vehicle control); higher = higher biomarker level / cell amount than vehicle control; details: in DMSO
Description: (§1)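 BioMAP Diversity Plus panel of 12 human primary cell co-culture systems (3C, 4H, LPS, SAg, BT, BF4T, BE3C, CASM3C, HDF3CGF, KF3CT, MyoF, Mphg). Compounds were added 1 h before stimulation and left for 24 h (MyoF 48 h; BT 72 h for soluble read-outs or 6 d for IgG). Biomarkers were read by ELISA, cytotoxicity by SRB, PBMC viability and proliferation by Alamar Blue. Each well value was divided by the mean of 8 DMSO control wells on the same plate and log10 transformed; duplicate blinded samples were tested at 4 concentrations.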

[2] = compound: CNS(=O)(=O)C(F)(F)C(F)(F)C(F)(F)C(F)(F)C(F)(F)C(F)(F)C(F)(F)C(F)(F)F [N-Methylperfluorooctanesulfonamide]; test: as above; details: in DMSO
Description: as §1

Row | Test System | level (log10) ([1]; 1500 nM) | level (log10) ([1]; 4400 nM) | level (log10) ([1]; 13000 nM) | level (log10) ([1]; 40000 nM) | level (log10) ([2]; 6700 nM) | level (log10) ([2]; 20000 nM) | level (log10) ([2]; 60000 nM)
1 | HDF3CGF:MMP-1 | -0.0005 ± 0.035 | -0.061 ± 0.042 | -0.063 ± 0.044 | -0.068 ± 0.069 | -0.008 ± 0.016 | -0.005 ± 0.011 | 0.0005 ± 0.013
2 | HDF3CGF:PAI-I | 0.063 | 0.0515 ± 0.023 | 0.0505 ± 0.0064 | -0.022 ± 0.027 | 0.051 ± 0.0028 | 0.0455 ± 0.019 | 0.063 ± 0.02
3 | HDF3CGF:Proliferation 72hr | 0.0615 ± 0.07 | -0.603 ± 0.43 | -0.288 ± 0.069 | -0.233 ± 0.091 | -0.001 ± 0.073 | 0.0205 ± 0.073 | -0.056 ± 0.095
4 | HDF3CGF:SRB | -0.0195 ± 0.035 | -0.007 ± 0.021 | 0.063 ± 0.054 | 0.067 ± 0.075 | -0.032 ± 0.03 | 0.005 ± 0.023 | -0.008 ± 0.014
5 | HDF3CGF:TIMP-1 | 0.027 ± 0.028 | -0.0075 ± 0.044 | -0.023 ± 0.069 | -0.04 ± 0.051 | 0.0335 ± 0.016 | -0.025 ± 0.038 | 0.012 ± 0.02
6 | HDF3CGF:TIMP-2 | 0.0455 ± 0.043 | 0.0415 ± 0.084 | 0.102 ± 0.019 | 0.0095 ± 0.013 | -0.094 ± 0.0057 | -0.136 ± 0.046 | -0.049 ± 0.044
7 | KF3CT:CCL2/MCP-1 | 0.003 ± 0.076 | -0.007 ± 0.02 | -0.021 ± 0.031 | 0.018 ± 0.0042 | 0.029 ± 0.017 | -0.01 ± 0.014 | -0.0185 ± 0.005
8 | KF3CT:CD54/ICAM-1 | -0.03 ± 0.013 | -0.019 | -0.0285 ± 0.026 | 0.015 ± 0.017 | 0.031 ± 0.03 | -0.035 ± 0.014 | 0.018 ± 0.0028
9 | KF3CT:CXCL8/IL-8 | -0.0035 ± 0.04 | -0.009 ± 0.037 | -0.006 ± 0.033 | -0.0315 ± 0.06 | -0.039 ± 0.041 | -0.158 ± 0.037 | -0.106 ± 0.02
10 | KF3CT:CXCL9/MIG | -0.002 ± 0.0071 | -0.0015 ± 0.005 | -0.0035 ± 0.0064 | -0.0685 ± 0.079 | -0.008 ± 0.0057 | -0.0015 ± 0.0092 | -0.0035 ± 0.023
11 | KF3CT:CXCL10/IP-10 | -0.009 ± 0.0071 | -0.011 ± 0.0028 | -0.015 ± 0.017 | -0.06 ± 0.044 | 0.0005 ± 0.04 | 0.003 ± 0.034 | 0.0255 ± 0.026
12 | KF3CT:IL-1alpha | -0.025 ± 0.0099 | -0.0435 ± 0.0035 | -0.074 ± 0.018 | -0.1075 ± 0.00071 | 0.0585 ± 0.026 | 0.0435 ± 0.026 | 0.051 ± 0.016
13 | KF3CT:MMP-9 | 0.0045 ± 0.012 | -0.007 ± 0.0028 | -0.0155 ± 0.013 | -0.0265 ± 0.019 | 0.0055 ± 0.005 | -0.0495 ± 0.0035 | -0.098 ± 0.027
14 | KF3CT:PAI-I | -0.006 ± 0.028 | -0.0155 ± 0.015 | -0.0135 ± 0.023 | -0.052 ± 0.027 | 0.0465 ± 0.0078 | 0.101 ± 0.0071 | 0.0425 ± 0.028
15 | KF3CT:SRB | 0.0015 ± 0.00071 | -0.0055 ± 0.0021 | -0.0095 ± 0.0021 | -0.035 ± 0.0042 | -0.0005 ± 0.00071 | -0.0035 ± 0.0078 | -0.002 ± 0.024
16 | KF3CT:TIMP-2 | 0.0125 ± 0.016 | 0.028 ± 0.013 | 0.0165 ± 0.022 | 0.0295 ± 0.015 | 0.0185 ± 0.0035 | 0.022 ± 0.024 | 0.008 ± 0.0028
17 | KF3CT:uPA | 0.0005 ± 0.018 | -0.003 ± 0.011 | 0.0035 ± 0.015 | -0.0035 ± 0.011 | 0.007 ± 0.014 | -0.011 ± 0.014 | -0.0085 ± 0.012
18 | MyoF:CD106/VCAM-1 | -0.0105 ± 0.0078 | 0.01 ± 0.0071 | -0.003 ± 0.0085 | 0.0035 ± 0.033 | 0.0065 ± 0.0078 | -0.0035 ± 0.016 | -0.0155 ± 0.012
19 | MyoF:CXCL8/IL-8 | -0.01 ± 0.023 | -0.0295 ± 0.0078 | -0.0275 ± 0.0021 | -0.025 ± 0.0042 | -0.0645 ± 0.056 | -0.0895 ± 0.049 | -0.163 ± 0.037
20 | MyoF:Collagen I | -0.0045 ± 0.019 | -0.0115 ± 0.016 | -0.016 ± 0.025 | -0.213 ± 0.037 | -0.019 ± 0.0071 | -0.0015 ± 0.023 | 0.0265 ± 0.026

Row | Test System | level (log10) ([1]; 1500 nM) | level (log10) ([1]; 4400 nM) | level (log10) ([1]; 13000 nM) | level (log10) ([1]; 40000 nM) | level (log10) ([2]; 6700 nM) | level (log10) ([2]; 20000 nM) | level (log10) ([2]; 60000 nM)
21 | MyoF:Collagen III | -0.015 ± 0.025 | -0.0115 ± 0.012 | -0.026 ± 0.02 | -0.044 ± 0.0071 | -0.0185 ± 0.016 | -0.007 ± 0.018 | -0.0175 ± 0.005
22 | MyoF:Collagen IV | -0.0095 ± 0.043 | 0.002 ± 0.018 | 0.004 ± 0.04 | 0.064 ± 0.013 | 0.228 ± 0.022 | 0.247 ± 0.024 | 0.273 ± 0.028
23 | MyoF:Decorin | 0.046 ± 0.05 | 0.06 ± 0.035 | 0.047 ± 0.047 | 0.0365 ± 0.039 | 0.0105 ± 0.012 | 0.005 ± 0.0085 | -0.016 ± 0.0085
24 | MyoF:MMP-1 | -0.0005 ± 0.021 | 0.018 ± 0.016 | -0.025 ± 0.0099 | 0.014 ± 0.02 | -0.036 ± 0.013 | -0.0325 ± 0.018 | 0.008 ± 0.02
25 | MyoF:PAI-I | 0.013 ± 0.013 | -0.002 | -0.0035 ± 0.00071 | 0.012 ± 0.0085 | 0.0005 ± 0.022 | -0.0145 ± 0.012 | 0.0255 ± 0.0092
26 | MyoF:SRB | 0.0015 ± 0.0064 | 0.002 ± 0.0014 | 0.0005 ± 0.0021 | 0.002 ± 0.0042 | -0.005 ± 0.0099 | -0.0085 ± 0.012 | -0.0065 ± 0.022
27 | MyoF:TIMP-1 | 0.004 ± 0.0071 | 0.001 ± 0.011 | 0.025 ± 0.0028 | 0.0325 ± 0.0064 | -0.0435 ± 0.00071 | -0.049 ± 0.034 | -0.0415 ± 0.005
28 | MyoF:alpha-SM Actin | 0.038 ± 0.067 | 0.041 ± 0.11 | 0.023 ± 0.086 | 0.0055 ± 0.09 | -0.021 ± 0.068 | -0.008 ± 0.042 | 0.024 ± 0.059
29 | MyoF:bFGF | 0.005 ± 0.04 | 0.017 ± 0.028 | 0.0045 ± 0.04 | 0.015 ± 0.0085 | 0 ± 0.014 | -0.0085 ± 0.033 | 0.005 ± 0.033
30 | lMphg:CCL2/MCP-1 | -0.0115 ± 0.018 | 0.001 ± 0.017 | -0.004 ± 0.023 | 0.0275 ± 0.028 | -0.034 ± 0.0099 | -0.061 ± 0.033 | -0.0465 ± 0.04
31 | lMphg:CCL3/MIP-1alpha | 0.0065 ± 0.023 | -0.0135 ± 0.013 | 0.004 ± 0.021 | 0.0345 ± 0.032 | -0.023 ± 0.0014 | 0.0105 ± 0.029 | 0.034 ± 0.033
32 | lMphg:CD40 | -0.0245 ± 0.021 | -0.0355 ± 0.0064 | -0.051 ± 0.0071 | -0.2 ± 0.057 | -0.054 ± 0.042 | -0.0365 ± 0.021 | 0.0255 ± 0.063
33 | lMphg:CD62E/E-Selectin | -0.038 ± 0.0028 | -0.045 ± 0.0014 | -0.0395 ± 0.029 | -0.007 ± 0.0071 | -0.12 ± 0.034 | -0.214 ± 0.03 | -0.182 ± 0.058
34 | lMphg:CD69 | -0.0045 ± 0.019 | -0.0685 ± 0.018 | -0.066 ± 0.04 | -0.0555 ± 0.013 | -0.0715 ± 0.03 | -0.0165 ± 0.013 | 0.061 ± 0.027
35 | lMphg:CD106/VCAM-1 | -0.018 ± 0.0014 | -0.0305 ± 0.012 | -0.0715 ± 0.018 | -0.384 ± 0.1 | 0.015 ± 0.014 | 0.0515 ± 0.0092 | 0.0645 ± 0.026
36 | lMphg:CXCL8/IL-8 | -0.0575 ± 0.0021 | -0.0665 ± 0.012 | -0.0245 ± 0.00071 | -0.0175 ± 0.021 | -0.0025 ± 0.0078 | 0.112 ± 0.022 | 0.118 ± 0.044
37 | lMphg:IL-1alpha | -0.0415 ± 0.0035 | -0.0175 ± 0.0078 | -0.0105 ± 0.052 | -0.0015 ± 0.0092 | 0.075 ± 0.017 | 0.132 ± 0.035 | 0.15 ± 0.013
38 | lMphg:M-CSF | -0.005 ± 0.0057 | -0.006 ± 0.016 | 0.002 ± 0.0099 | -0.011 ± 0.0099 | -0.046 ± 0.0028 | -0.0305 ± 0.016 | -0.0015 ± 0.021
39 | lMphg:SRB | -0.009 ± 0.0085 | -0.0135 ± 0.0035 | 0.002 ± 0.0057 | -0.0085 ± 0.00071 | -0.021 ± 0.021 | -0.0155 ± 0.00071 | -0.0265 ± 0.00071
40 | lMphg:SRB-Mphg | 0.003 ± 0.023 | 0.004 ± 0.0071 | -0.0155 ± 0.022 | 0.0125 ± 0.019 | 0.0005 ± 0.0035 | 0 ± 0.0042 | -0.018 ± 0.02
